From article PMC8284931 (Journal of biomolecular screening, 2012)
Structures can show the parent of a compound that is named as a salt. Where two headings read alike, the source gives them in different places. Blank lines part the entries; values can stand above or below the compound they belong to.

Legend:
[1] = reported, no reference given, cited from earlier work
P-glycoprotein = conditions: result in words; cited from earlier work
[2] = target: T1, mammalian GUS purified from Bovine taurus liver (Bos taurus, UniProt A3KMY8); test: B. taurus GUS enzyme assay; format: biochemical; conditions: for activity against purified mammalian GUS: result in words
T1 sequence (A3KMY8 1-652): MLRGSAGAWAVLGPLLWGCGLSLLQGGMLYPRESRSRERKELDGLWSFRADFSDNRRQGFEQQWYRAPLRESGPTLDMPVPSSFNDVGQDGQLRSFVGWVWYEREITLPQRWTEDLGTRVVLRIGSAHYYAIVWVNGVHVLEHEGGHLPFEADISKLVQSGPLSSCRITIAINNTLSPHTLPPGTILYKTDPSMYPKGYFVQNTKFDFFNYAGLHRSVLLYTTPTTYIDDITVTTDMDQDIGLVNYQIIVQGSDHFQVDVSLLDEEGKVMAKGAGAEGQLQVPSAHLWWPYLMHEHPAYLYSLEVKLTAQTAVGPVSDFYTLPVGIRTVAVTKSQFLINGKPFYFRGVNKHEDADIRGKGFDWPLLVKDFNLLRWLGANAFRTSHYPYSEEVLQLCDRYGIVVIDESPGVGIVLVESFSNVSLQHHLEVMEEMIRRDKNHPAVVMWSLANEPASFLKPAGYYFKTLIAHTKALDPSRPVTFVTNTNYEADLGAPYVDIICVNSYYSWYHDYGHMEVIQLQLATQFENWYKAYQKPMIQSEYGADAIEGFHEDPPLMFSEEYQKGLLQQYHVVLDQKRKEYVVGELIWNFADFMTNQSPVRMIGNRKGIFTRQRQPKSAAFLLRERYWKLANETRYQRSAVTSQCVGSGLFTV

E. coli cells = test: Toxicity assay; conditions: MTS, 50 μg/ml, positive control
[3] = target: purified E. coli GUS enzyme (Escherichia coli, UniProt P05804); test: E. coli GUS enzyme assay; format: biochemical
[4] = target: endogenous GUS in living intact E. coli (DH5α) (Escherichia coli, UniProt P05804); test: E. coli cell-based GUS activity assay; conditions: IC50 shift; for fold less potent in cell-based assay compared to E. coli GUS enzyme assay: less potent in cells
in vitro = conditions: E. coli
[5] = tested on: MAO (MAO-A, MAO-B or total activity); conditions: read-out: IC50 for MAO; depending on subclass of MAO-A or MAO-B, or total activity; reported, no reference given; cited from earlier work

Sequence of endogenous GUS in living intact E. coli (DH5α) (P05804 whole entry): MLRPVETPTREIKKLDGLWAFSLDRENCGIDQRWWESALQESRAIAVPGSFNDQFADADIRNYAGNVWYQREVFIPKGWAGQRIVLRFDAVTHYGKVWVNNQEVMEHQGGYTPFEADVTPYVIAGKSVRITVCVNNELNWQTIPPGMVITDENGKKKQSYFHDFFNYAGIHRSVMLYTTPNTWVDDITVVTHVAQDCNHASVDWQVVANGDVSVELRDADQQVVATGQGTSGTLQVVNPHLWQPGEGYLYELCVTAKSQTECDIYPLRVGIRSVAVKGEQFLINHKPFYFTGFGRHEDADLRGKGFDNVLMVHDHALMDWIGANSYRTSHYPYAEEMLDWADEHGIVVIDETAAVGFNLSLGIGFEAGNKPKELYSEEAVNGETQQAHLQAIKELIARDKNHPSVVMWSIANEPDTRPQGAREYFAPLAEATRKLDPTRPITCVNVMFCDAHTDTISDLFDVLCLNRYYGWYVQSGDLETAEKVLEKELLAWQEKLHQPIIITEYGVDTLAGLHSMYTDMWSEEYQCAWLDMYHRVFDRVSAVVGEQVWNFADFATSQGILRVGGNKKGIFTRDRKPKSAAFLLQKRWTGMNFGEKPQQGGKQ
Sequence of purified E. coli GUS enzyme (P05804 whole entry): as above

Structure (SMILES): Clc1ccc2c(c1)C(N1CCNCC1)=Nc1ccccc1O2 [Amoxapine, amoxapine]
normal blood levels ([1]; converted from μg/ml): 54 to 669 nM | normal blood levels [1]: 0.017 to 0.21 µg/mL | inhibition of P-glycoprotein (P-glycoprotein): potent non-competitive inhibitors

IC50 [2]: > 100000 nM | activity against purified mammalian GUS [2]: no significant activity
Structure (SMILES): Cc1cc(C(=O)NNCc2ccccc2)no1 [Isocarboxazid, isocarboxazid]

Structure (SMILES): NC[C@H]1O[C@H](O[C@H]2[C@H](O)[C@@H](O[C@H]3O[C@H](CO)[C@@H](O)[C@H](N)[C@H]3O)[C@H](N)C[C@@H]2N)[C@H](O)[C@@H](O)[C@@H]1O [Kanamycin, kanamycin]
reduction of activity in viability assay (E. coli cells): over 90%

Structure (SMILES): CN1CCN(C2=Nc3ccccc3Oc3ccc(Cl)cc32)CC1 [Loxapine, loxapine]
loss in potency versus amoxapine ([3]; E. coli GUS enzyme assay, methyl group on the piperazine ring): > 250 fold | inhibition of P-glycoprotein (P-glycoprotein): potent non-competitive inhibitors

Structure (SMILES): OC(c1cc(C(F)(F)F)nc2c(C(F)(F)F)cccc12)C1CCCCN1 (stereo not drawn) [Mefloquine, mefloquine hydrochloride]
fold less potent in cell-based assay compared to E. coli GUS enzyme assay [4]: over 4.9 fold | fold less potent in cell-based assay compared to E. coli GUS enzyme assay ([4]; listed as mefloquine): 5 fold | viability at 2 h, 10 µM (in vitro): 100%

Structure (SMILES): O=C(CCNNC(=O)c1ccncc1)NCc1ccccc1 [Nialamide, nialamide]
fold more potent in cell-based assay compared to E. coli GUS enzyme assay ([4]; more potent in cells): 4 fold | activity against purified mammalian GUS [2]: no significant activity

Structure (SMILES): NNCCc1ccccc1 [Phenelzine, phenelzine]
inhibition in Prestwick collection screen ([3]; single point, 10 μM compound, high throughput GUS enzyme assay, 10 µM): > 50% | IC50 [5]: 70 to 900 nM
